{"source": "paper PMC7894038", "about": "(Antiviral research, 2020)", "target": "eNP-CTD (Ebola virus nucleoprotein C-terminal domain, residues 641-739) (Zaire ebolavirus, UniProt P18272)", "sequence (P18272 641-739 limits assumed)": "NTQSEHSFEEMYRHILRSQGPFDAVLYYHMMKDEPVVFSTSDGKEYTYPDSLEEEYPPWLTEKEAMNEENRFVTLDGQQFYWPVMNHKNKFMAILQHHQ", "assay": "biochemical", "format": "binding", "note": "Where two headings read alike, the source gives them in different places."}
{"smiles": "CNCC1CCN(Cc2cccnc2)CC1", "note": "[CC69846, N-methyl-[1-(pyrid-3-ylmethyl)piperid-4-yl]methylamine]", "values": [{"measurement": "Site 1 ligand efficiency", "value": "1.6 ± 0.2 (0.24)"}, {"measurement": "Site 3 ligand efficiency", "value": "1.9 ± 0.3 (0.24)"}, {"measurement": "Site 4 ligand efficiency", "value": "4.9 ± 1.8 (0.20)"}, {"measurement": "Kd", "setting": "Site 1 Kd ± Std. Error", "value": 1600, "unit": "µM"}, {"measurement": "Kd", "setting": "Site 3 Kd ± Std. Error", "value": "> 1630", "unit": "µM"}, {"measurement": "Kd", "setting": "Site 4 Kd ± Std. Error", "value": "> 1630", "unit": "µM"}, {"measurement": "Site 2 Kd ± Std. Error", "setting": "pH 7", "value": "did not bind"}, {"measurement": "Site 4 Kd ± Std. Error", "setting": "pH 7", "value": "lower affinity"}, {"measurement": "Kd", "setting": "read-out: Site 2 Kd ± Std. Error, pH 7", "value": "> 7000", "unit": "µM"}]}
